Experimental data reported in US11318182B1, “Plant extract for skin infections” (priority 2021, dated 2022).

Columns and labels:
Assay type in all cases: cell-based
Settings in all cases: plant extract 29 μg/ml
Penicillium notatum = experiment: Growth inhibition zone on Sabouraud dextrose agar
Procedure: (§1) In the preferred embodiment, grinded garlic, ginger, papaya seed, clover bud, tamarind and the coconut oil components are extracted by 95% ethanol and kept in dark four days at room temperature. The extracted homogenous texture is filtered through Whatman filter paper no. 1 by using Thermo Scientific Vacuum USA. The filtered extract pH is adjusted to 5.6. A drop of Lavender is added to the final concentration and the extract is refrigerated in sealed, amber-colored bottles at 4° C. after the concentration is determined. […], Penicillium notatum, and Aspergillus niger used as fungal species. Known isolates of Escherichia coli, Bacillus serous and Staphylococcus aureus used as bacterial species. Sabouraud dextrose agar (SDA) medium and Nutrient agar plates (NAP) used to confirm in vitro inhibition of the fungus and bacteria in 24, 48 and 72 hours at room temperature and 37° C. respectively. The antimicrobial activity of plant-extract specified by the formation of an inhibition zone is measured by using Vernier calipers. Also, 28 individuals evaluated after using the mixed plant-extract within two weeks trial controlling fungal and bacterial infections of the skin. […] Staphylococcus aureus, Bacillus cereus and Escherichia coli grown on nutrient agar (NA). Aspergillus niger, Penicillium notatum and […] tested fungal species grown on Sabouraud dextrose agar (SDA). […] The SDA and NA plates were filled with 20 ml of media and solidified in 24 hours at 37° C. incubator before inoculation of the of the microorganisms and the products to be tested.

Aspergillus niger = experiment: Growth inhibition zone on Sabouraud dextrose agar
Procedure: as §1

Serratia marcescens = experiment: Growth inhibition zone on Sabouraud dextrose agar
Procedure: as §1

Bacillus cereus = experiment: Growth inhibition zone on nutrient agar
Procedure: as §1

Staphylococcus aureus = experiment: Growth inhibition zone on nutrient agar
Procedure: as §1

Escherichia coli = experiment: Growth inhibition zone on nutrient agar
Procedure: as §1

Compound: Clc1ccccc1C(c1ccccc1)(c1ccccc1)n1ccnc1 [Clotrimazole 1%, clotrimazole]
- Growth inhibition by mm, P. notatum (Penicillium notatum): 2.1 mm
- Growth inhibition by mm, A. niger (Aspergillus niger): 1.8 mm
- Growth inhibition by mm, S. marcescens (Serratia marcescens): 1.8 mm
- Growth inhibition by mm, B. cereus (Bacillus cereus): 1 mm
- Growth inhibition by mm, S. Aureus (Staphylococcus aureus): 1.2 mm
- Growth inhibition by mm, E. coli (Escherichia coli): 2.2 mm

Compound: CN(C)[C@@H]1C(O)=C(C(N)=O)C(=O)[C@@]2(O)C(O)=C3C(=O)c4c(O)cccc4[C@@](C)(O)[C@H]3C[C@@H]12 [Tetracycline]
- Growth inhibition by mm, P. notatum (Penicillium notatum): 0.7 mm
- Growth inhibition by mm, A. niger (Aspergillus niger): 0.8 mm
- Growth inhibition by mm, S. marcescens (Serratia marcescens): 0.7 mm
- Growth inhibition by mm, B. cereus (Bacillus cereus): 1.3 mm
- Growth inhibition by mm, S. Aureus (Staphylococcus aureus): 1.3 mm
- Growth inhibition by mm, E. coli (Escherichia coli): 1.2 mm

Compound: C=CCCCCCCCCC(=O)O [Undecycleric add 25%, undecylenic acid]
- Growth inhibition by mm, P. notatum (Penicillium notatum): 1.6 mm
- Growth inhibition by mm, A. niger (Aspergillus niger): 1.9 mm
- Growth inhibition by mm, S. marcescens (Serratia marcescens): 1.7 mm
- Growth inhibition by mm, B. cereus (Bacillus cereus): 1.1 mm
- Growth inhibition by mm, S. Aureus (Staphylococcus aureus): 1.1 mm
- Growth inhibition by mm, E. coli (Escherichia coli): 1.2 mm

Compound: Penicillin
- Growth inhibition by mm, P. notatum (Penicillium notatum): 1.4 mm
- Growth inhibition by mm, A. niger (Aspergillus niger): 1.7 mm
- Growth inhibition by mm, S. marcescens (Serratia marcescens): 1.6 mm
- Growth inhibition by mm, B. cereus (Bacillus cereus): 1.9 mm
- Growth inhibition by mm, S. Aureus (Staphylococcus aureus): 1.9 mm
- Growth inhibition by mm, E. coli (Escherichia coli): 2.5 mm
